Experimental data published in US11053204B2, “Pyrimidinyloxy benzene derivatives as herbicides” (FMC Corporation, priority 2015, dated 2021).

Key:
Type in all cases: in vivo
[1] = system: wheat (winter wheat, Triticum aestivum); test: Test C preemergence, plant response rating; conditions: Triticum aestivum, pre-emergence, Preemergence
Procedure, shortened: (§1)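 Both timings shared one formulation, a non-phytotoxic solvent mixture with surfactant, and a greenhouse period of 13 to 15 d. Preemergence used seeded loam/sand or silt loam soil, postemergence used 2 to 18 cm plants; visual ratings ran from 0 (no effect) to 100 (complete control).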

[2] = system: nutsedge, yellow (yellow nutsedge, Cyperus esculentus); test: Test C preemergence, plant response rating; conditions: Cyperus, pre-emergence, Preemergence
Procedure, shortened: as §1

[3] = system: morningglory (Ipomoea coccinea); test: Test C preemergence, plant response rating; conditions: Ipomoea, pre-emergence, Preemergence
Procedure, shortened: as §1

[4] = system: waterhemp (common waterhemp, Amaranthus rudis); test: Test C preemergence, plant response rating; conditions: Amaranthus tuberculatus, pre-emergence, Preemergence
Procedure, shortened: as §1

[5] = system: lambsquarters (Chenopodium album); test: Test C preemergence, plant response rating; conditions: Chenopodium album, pre-emergence, Preemergence
Procedure, shortened: as §1

[6] = system: velvetleaf (Abutilon theophrasti); test: Test C preemergence, plant response rating; conditions: Abutilon theophrasti, pre-emergence, Preemergence
Procedure, shortened: as §1

[7] = system: galium (catchweed bedstraw, Galium aparine); test: Test A postemergence, visual injury rating; conditions: Galium, post-emergence, 240 h, 0 is no effect, 100 is complete control, read-out: Galium plant response rating (0 to 100 scale)
Procedure, shortened: (§2)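 Visual injury scored 0–100 (100 = complete control) against untreated controls about 10 days after treatment in a greenhouse. Test chemicals, formulated with surfactant in non-phytotoxic solvent, were sprayed on soil preemergence or on 2-10 cm, one- to two-leaf plants postemergence.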

[8] = system: pigweed (Amaranthus retroflexus); test: Test A postemergence, visual injury rating; conditions: Amaranthus retroflexus, post-emergence, 240 h, 0 is no effect, 100 is complete control, read-out: Pigweed plant response rating (0 to 100 scale)
Procedure, shortened: as §2

[9] = system: Italian ryegrass (Lolium multiflorum); test: Test A postemergence, visual injury rating; conditions: Lolium multiflorum, post-emergence, 240 h, 0 is no effect, 100 is complete control, read-out: Ryegrass, Italian plant response rating (0 to 100 scale)
Procedure, shortened: as §2

[10] = system: kochia (Kochia scoparia); test: Test A postemergence, visual injury rating; conditions: Bassia scoparia, post-emergence, 240 h, 0 is no effect, 100 is complete control, read-out: Kochia plant response rating (0 to 100 scale)
Procedure, shortened: as §2

[11] = system: corn (Zea mays); test: Test A postemergence, visual injury rating; conditions: Zea mays, post-emergence, 240 h, 0 is no effect, 100 is complete control, read-out: Corn plant response rating (0 to 100 scale)
Procedure, shortened: as §2

[12] = system: blackgrass (Alopecurus myosuroides); test: Test A postemergence, visual injury rating; conditions: Alopecurus myosuroides, post-emergence, 240 h, 0 is no effect, 100 is complete control, read-out: Blackgrass plant response rating (0 to 100 scale)
Procedure, shortened: as §2

[13] = system: wheat (Triticum aestivum); test: Test A postemergence, visual injury rating; conditions: Triticum aestivum, post-emergence, 240 h, 0 is no effect, 100 is complete control, read-out: Wheat plant response rating (0 to 100 scale)
Procedure, shortened: as §2

[14] = system: barnyardgrass (Echinochloa crus-galli); test: Test A postemergence, visual injury rating; conditions: Echinochloa crus-galli, post-emergence, 240 h, 0 is no effect, 100 is complete control, read-out: Barnyardgrass plant response rating (0 to 100 scale)
Procedure, shortened: as §2

[15] = system: ragweed (common ragweed, Ambrosia elatior); test: Test A postemergence, visual injury rating; conditions: Ambrosia artemisiifolia, post-emergence, 240 h, 0 is no effect, 100 is complete control, read-out: Ragweed plant response rating (0 to 100 scale)
Procedure, shortened: as §2

[16] = system: giant foxtail (Setaria faberii); test: Test A postemergence, visual injury rating; conditions: Setaria faberi, post-emergence, 240 h, 0 is no effect, 100 is complete control, read-out: Foxtail, Giant plant response rating (0 to 100 scale)
Procedure, shortened: as §2

[17] = system: crabgrass, large (large crabgrass, Digitaria sanguinalis); test: Test C postemergence, plant response rating; conditions: Digitaria sanguinalis, post-emergence
Procedure, shortened: as §1

[18] = system: ryegrass, Italian (Italian ryegrass, Lolium multiflorum); test: Test C postemergence, plant response rating; conditions: Lolium multiflorum, post-emergence
Procedure, shortened: as §1

[19] = system: barnyardgrass (Echinochloa crus-galli); test: Test C postemergence, plant response rating; conditions: Echinochloa crus-galli, post-emergence
Procedure, shortened: as §1

[20] = 62 g ai/ha, scale 0 to 100 (0 no effect, 100 complete control)
[21] = 125 g ai/ha, scale 0 to 100 (0 no effect, 100 complete control)

**Q.** For O=C(OCCC(F)(F)F)c1c(Br)cccc1Oc1ncc(Cl)cn1 [Compound 26, 3,3,3-trifluoropropyl 2-bromo-6-[(5-chloro-2-pyrimidinyl)oxy]benzoate], which plant injury at 125 g/ha ([1]; 125 g ai/ha, scale of 0 to 100) is on record?
**A.** 15%

**Q.** What about the plant injury at 16 g/ha ([1]; 16 g ai/ha, scale 0 to 100) of the same compound?
**A.** 0%

**Q.** What about the plant injury at 31 g/ha ([1]; 31 g ai/ha, scale 0 to 100) of the same compound?
**A.** 20%

**Q.** And the plant injury at 62 g/ha ([1]; 62 g ai/ha, scale 0 to 100)?
**A.** 5%

**Q.** And the pest or weed control at 125 g/ha ([2]; 125 g ai/ha, scale of 0 to 100)?
**A.** 45%

**Q.** And the pest or weed control at 16 g/ha ([2]; 16 g ai/ha, scale 0 to 100)?
**A.** 0%

**Q.** What about the pest or weed control at 31 g/ha ([2]; 31 g ai/ha, scale 0 to 100) of the same compound?
**A.** 0%

**Q.** And the pest or weed control at 62 g/ha ([2]; 62 g ai/ha, scale 0 to 100)?
**A.** 15%

**Q.** And the pest or weed control at 125 g/ha ([3]; 125 g ai/ha, scale of 0 to 100)?
**A.** 95%

**Q.** What about the pest or weed control at 16 g/ha ([3]; 16 g ai/ha, scale 0 to 100) of the same compound?
**A.** 20%

**Q.** And the pest or weed control at 31 g/ha ([3]; 31 g ai/ha, scale 0 to 100)?
**A.** 10%

**Q.** What about the pest or weed control at 62 g/ha ([3]; 62 g ai/ha, scale 0 to 100) of the same compound?
**A.** 85%

**Q.** What about the pest or weed control at 125 g/ha ([4]; 125 g ai/ha, scale of 0 to 100) of the same compound?
**A.** 100%

**Q.** What about the pest or weed control at 16 g/ha ([4]; 16 g ai/ha, scale 0 to 100) of the same compound?
**A.** 100%

**Q.** What about the pest or weed control at 31 g/ha ([4]; 31 g ai/ha, scale 0 to 100) of the same compound?
**A.** 100%

**Q.** What about the pest or weed control at 62 g/ha ([4]; 62 g ai/ha, scale 0 to 100) of the same compound?
**A.** 100%

**Q.** And the pest or weed control at 125 g/ha ([5]; 125 g ai/ha, scale of 0 to 100)?
**A.** 95%

**Q.** And the pest or weed control at 16 g/ha ([5]; 16 g ai/ha, scale 0 to 100)?
**A.** 70%

**Q.** What about the pest or weed control at 31 g/ha ([5]; 31 g ai/ha, scale 0 to 100) of the same compound?
**A.** 85%

**Q.** And the pest or weed control at 62 g/ha ([5]; 62 g ai/ha, scale 0 to 100)?
**A.** 95%

**Q.** What about the pest or weed control at 125 g/ha ([6]; 125 g ai/ha, scale of 0 to 100) of the same compound?
**A.** 100%

**Q.** What about the pest or weed control at 16 g/ha ([6]; 16 g ai/ha, scale 0 to 100) of the same compound?
**A.** 0%

**Q.** And the pest or weed control at 31 g/ha ([6]; 31 g ai/ha, scale 0 to 100)?
**A.** 30%

**Q.** And the pest or weed control at 62 g/ha ([6]; 62 g ai/ha, scale 0 to 100)?
**A.** 85%

**Q.** And the pest or weed control at 125 g/ha ([7]; 125 g ai/ha)?
**A.** 100%

**Q.** And the pest or weed control at 500 g/ha ([7]; 500 g ai/ha)?
**A.** 100%

**Q.** And the pest or weed control at 125 g/ha ([8]; 125 g ai/ha)?
**A.** 100%

**Q.** What about the pest or weed control at 500 g/ha ([8]; 500 g ai/ha) of the same compound?
**A.** 100%

**Q.** And the pest or weed control at 125 g/ha ([9]; 125 g ai/ha)?
**A.** 70%

**Q.** What about the pest or weed control at 500 g/ha ([9]; 500 g ai/ha) of the same compound?
**A.** 80%

**Q.** What about the pest or weed control at 125 g/ha ([10]; 125 g ai/ha) of the same compound?
**A.** 100%

**Q.** And the pest or weed control at 500 g/ha ([10]; 500 g ai/ha)?
**A.** 100%

**Q.** What about the plant injury at 125 g/ha ([11]; 125 g ai/ha) of the same compound?
**A.** 60%

**Q.** What about the plant injury at 500 g/ha ([11]; 500 g ai/ha) of the same compound?
**A.** 100%

**Q.** And the pest or weed control at 125 g/ha ([12]; 125 g ai/ha)?
**A.** 100%

**Q.** And the pest or weed control at 500 g/ha ([12]; 500 g ai/ha)?
**A.** 100%

**Q.** What about the plant injury at 125 g/ha ([13]; 125 g ai/ha) of the same compound?
**A.** 40%

**Q.** What about the plant injury at 500 g/ha ([13]; 500 g ai/ha) of the same compound?
**A.** 90%

**Q.** And the pest or weed control at 125 g/ha ([14]; 125 g ai/ha)?
**A.** 100%

**Q.** And the pest or weed control at 500 g/ha ([14]; 500 g ai/ha)?
**A.** 100%

**Q.** And the pest or weed control at 125 g/ha ([15]; 125 g ai/ha)?
**A.** 30%

**Q.** What about the pest or weed control at 500 g/ha ([15]; 500 g ai/ha) of the same compound?
**A.** 60%

**Q.** And the pest or weed control at 125 g/ha ([16]; 125 g ai/ha)?
**A.** 100%

**Q.** And the pest or weed control at 500 g/ha ([16]; 500 g ai/ha)?
**A.** 100%

**Q.** What about the pest or weed control at 16 g/ha ([17]; 16 g ai/ha, scale 0 to 100) of the same compound?
**A.** 10%

**Q.** What about the pest or weed control at 31 g/ha ([17]; 31 g ai/ha, scale 0 to 100) of the same compound?
**A.** 20%

**Q.** What about the pest or weed control at 62 g/ha [17, 20] of the same compound?
**A.** 25%

**Q.** And the pest or weed control at 125 g/ha [17, 21]?
**A.** 65%

**Q.** What about the pest or weed control at 16 g/ha ([18]; 16 g ai/ha, scale 0 to 100) of the same compound?
**A.** 5%

**Q.** What about the pest or weed control at 31 g/ha ([18]; 31 g ai/ha, scale 0 to 100) of the same compound?
**A.** 5%

**Q.** What about the pest or weed control at 62 g/ha [18, 20] of the same compound?
**A.** 10%

**Q.** And the pest or weed control at 125 g/ha [18, 21]?
**A.** 10%

**Q.** What about the pest or weed control at 16 g/ha ([19]; 16 g ai/ha, scale 0 to 100) of the same compound?
**A.** 10%

**Q.** What about the pest or weed control at 31 g/ha ([19]; 31 g ai/ha, scale 0 to 100) of the same compound?
**A.** 10%

**Q.** And the pest or weed control at 62 g/ha [19, 20]?
**A.** 20%

**Q.** And the pest or weed control at 125 g/ha [19, 21]?
**A.** 30%
